# Read-outs that look alike come from different tables or passages of the source.
# Test system: IL-1β production in PMA-differentiated THP-1 cells
# Experiment: IL-1β production in PMA-differentiated THP-1 cells stimulated with gramicidin (hTHP-1 assay, 2% fetal bovine serum; Procedures 1-3)
# Format: cell-based, human
# Summary of the method: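 PMA-primed THP-1 cells (20 ng/ml PMA, 16-18 h) in RPMI with 2% FBS were pre-incubated with compounds for 1 h, from 100 μM downward in 3-fold steps (0.37% DMSO final), then stimulated with 5 μM gramicidin for 2 h. IL-1β in the supernatant was quantified by HTRF.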
# [1] = hTHP-1 assay containing 2% fetal bovine serum, Table B2, class symbols, read-out: IC50
# [2] = Table B3, hTHP-1 assay containing 2% fetal bovine serum, gramicidin stimulation, IL-1β readout, read-out: hTHP-1 IC50
# [3] = Homo sapiens, THP-1, hTHP-1 assay containing 2% fetal bovine serum, Table B2, class symbols, read-out: IC50
# [4] = Homo sapiens, THP-1, Table B3, hTHP-1 assay containing 2% fetal bovine serum, gramicidin stimulation, IL-1β readout, read-out: hTHP-1 IC50
smiles,measurement,setting,value
"CC(C)(O)c1cc(S(N)(=O)=NC(=O)Nc2c3c(cc4c2CCC4)CCC3)sc1-c1ccccc1 (stereo not shown) [Example 477, N′-((1,2,3,5,6,7-hexahydro-s-indacen-4-yl)carbamoyl)-4-(2-hydroxypropan-2-yl)-5-phenylthiophene-2-sulfomidamide]",IC50,[1],200 to 1000 nM
"CC(C)(O)c1csc(S(N)(=O)=NC(=O)Nc2c3c(cc4c2CC4)CCC3)c1 (single isomer, unassigned) [Example 560, (R) or (S)-4-(2-hydroxypropan-2-N′-((2,4,5,6-tetrahydro-1H-cyclobuta[f]inden-3 - y])carbamoyl) thiophene-2-sulfonimidamide]",IC50,[1],8 to 40 nM
"CNS(=O)(=O)c1cccc(S(N)(=O)=NC(=O)Nc2c3c(cc4c2CCC4)CCC3)c1 (single isomer, unassigned) [Example 792, (S) or (R)-3-(N′-((1,2,3,5,6,7-hexahydro-s-indacen-4-yl)carbamoyl)sulfamidimidoyl)-N-methylbenzenesulfonamide]",IC50,[2],1000 to 5000 nM
"COC1CCc2c(csc2S(N)(=O)=NC(=O)Nc2c3c(cc4c2CCC4)CCC3)C1 (single isomer, unassigned) [Example 851, (R, R) or (S, R)-N′-((1,2,3,5,6,7-hexahydro-s-indacen-4-yl)carbamoyl)-5-methoxy-4,5,6,7-tetrahydrobenzo[c]thiophene-1-sulfonimidamide]",IC50,[2],200 to 1000 nM
"CC(C)(O)c1cc(F)c(S(N)(=O)=NC(=O)Nc2c3c(cc4c2CC4)CCC3)s1 (single isomer, unassigned) [Example 433]",IC50,[1],200 to 1000 nM
"CN(Cc1ccc(S(N)(=O)=NC(=O)Nc2c3c(cc4c2CCC4)CCC3)cc1)CC(F)F (single isomer, unassigned) [Example 611, (S) or (R)-4-(((2,2-difluoroethyl) (methyl)amino)methyl)-N′-((1,2,3,5,6,7-hexahydro-s-indacen-4-yl)carbamoyl) benzenesulfonimidamide]",IC50,"Homo sapiens, THP-1, hTHP-1 assay containing 2% fetal bovine serum, Table B2, given as bound, read-out: IC50",> 30000 nM
CN(Cc1ccc(S(N)(=O)=NC(=O)Nc2c3c(cc4c2CC4)CCC3)c(F)c1)C1CCC1 (stereo not shown) [Compound 891],IC50,[3],1000 to 5000 nM
"CC(C)(O)c1cc(S(N)(=O)=NC(=O)Nc2c3c(cc4c2CCC4)CCC3)sc1-c1ccccc1 (single isomer, unassigned) [Example 553, (S) or (R)-N′-((1,2,3,5,6,7-hexahydro-s-indacen-4-yl)carbamoyl)-(4-2-hydroxypropan-2-yl)-5-phenylthiophene-2-sulfonimidamide]",IC50,[1],5000 to 30000 nM
"CC(C)(O)c1nc(CO)c(S(N)(=O)=NC(=O)Nc2c3c(cc4c2C(=O)CC4)CCC3)s1 (stereo not shown) [Example 738, 4-(Hydroxymethyl)-2-(2-hydroxypropan-2-yl)-N-((3-oxo-1,2,3,5,6,7-hexahydro-s-indacen-4-yl)carbamoyl)thiazole-5-sulfonimidamide]",IC50,[4],1000 to 5000 nM
"CN(C)Cc1cnc(S(N)(=O)=NC(=O)Nc2c3c(cc4c2CCC4)CCC3)c(F)c1 (stereo not shown) [Example 497, 5-((Dimethylamino)methyl)-3-fluoro-N′-((1,2,3,5,6,7-hexahydro-s-indacen-4-yl)carbamoyl)pyridine-2-sulfonimidamide]",IC50,[3],1000 to 5000 nM
"COC1CCc2csc(S(N)(=O)=NC(=O)Nc3c4c(cc5c3CCC5)CCC4)c2C1 (single isomer, unassigned) [Example 856, (S, S) or (R, S)-N′-((1,2,3,5,6,7-hexahydro-s-indacen-4-yl)carbamoyl)-6-methoxy-4,5,6,7-tetrahydrobenzo[c]thiophene-1-sulfonimidamide]",IC50,[2],> 30000 nM
"CN(C)C(c1ccc(S(N)(=O)=NC(=O)Nc2c3c(cc4c2CCC4)CCC3)cc1)C(F)F (single isomer, unassigned) [Example 646, (R,S) or (S,S)-4-(-1-(dimethylamino)-2,2-difluoroethyl)-N′-((1,2,3,5,6,7-hexahydro-s-indacen-4-yl)carbamoyl) benzenesulfonimidamide]",IC50,"hTHP-1 assay containing 2% fetal bovine serum, Table B2, given as bound, read-out: IC50",> 30000 nM
"CC1c2c(csc2S(N)(=O)=NC(=O)Nc2c3c(cc4c2CCC4)CCC3)CN1C (stereo not shown) [Example 768, N′-((1,2,3,5,6,7-hexahydro-s-indacen-4-yl)carbamoyl)-5,6-dimethyl-5,6-dihydro-4H-thieno[3,4-c]pyrrole-1-sulfonimidamide]",IC50,[4],200 to 1000 nM
